Measured values reported in PubChem BioAssay (NCI).
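Assay format: 96-well plates, 48-hour exposure. TGI denotes the concentration required for complete inhibition of growth.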

How the values were obtained:
Assay in all cases: DTP human tumour cell line panel, 48 h
HCT-15 colon = system: HCT-15 colon
CCRF-CEM leukemia = system: CCRF-CEM leukemia
SK-MEL-5 melanoma = system: SK-MEL-5 melanoma
A498 renal = system: A498 renal
HOP-62 NSCLC = system: HOP-62 NSCLC
KM12 colon = system: KM12 colon
SK-OV-3 ovarian = system: SK-OV-3 ovarian
SR leukemia = system: SR leukemia
OVCAR-4 ovarian = system: OVCAR-4 ovarian
SNB-75 CNS = system: SNB-75 CNS

Row | SMILES | TGI (HCT-15 colon) [µM] | TGI (CCRF-CEM leukemia) [µM] | TGI (SK-MEL-5 melanoma) [µM] | TGI (A498 renal) [µM] | TGI (HOP-62 NSCLC) [µM] | TGI (KM12 colon) [µM] | TGI (SK-OV-3 ovarian) [µM] | TGI (SR leukemia) [µM] | TGI (OVCAR-4 ovarian) [µM] | TGI (SNB-75 CNS) [µM]
1 | O=C(NC(C(F)(F)F)(C(F)(F)F)P(=O)(Cc1ccccc1)Cc1ccccc1)C(C(F)(F)F)C(F)(F)F | > 100 | > 100 | 29.1 | 32.3 | 41.6 | 37.7 | > 100 | 80.6 |  | 
2 | CSc1nc(Cl)c2c(n1)Sc1nc3ccccc3n1C2O (stereo not given) | > 40.2 | 24.6 | > 100 | > 100 | > 79 | > 21.2 | > 100 |  | > 100 | > 82.2
3 | CCOC(=O)C(NC(=O)c1cccc(Cl)c1)(Nc1cccc(C)c1)C(F)(F)F (stereo not given) | 31.2 | > 100 | 30.9 |  | 36.2 | 30.1 |  | > 100 | 62.8 | 43.9
4 | CCCn1cc2c3c(cccc31)C1C=C(C)CN(C)C1C2 (stereo not given) | 49 | 44.9 | 38.3 | 37.8 | 67.2 | 58 | 71.4 |  | 29.8 | 39.3
5 | COc1cc2c(c(OC)c1)[C@H](C)N(Cc1ccccc1)C(C)C2 (stereo not given in full) | > 100 | > 100 | 90.3 | > 100 | > 100 | > 100 | > 100 | > 100 |  | > 100
6 | c1cncc(CSc2nc3ccccc3nc2-c2cccs2)c1 | > 100 | > 100 | > 100 |  | > 100 | > 100 |  | > 100 | > 100 | > 100
7 | CC(C)(C)c1ccnc(N=C2N=C(Nc3cc(C(C)(C)C)ccn3)c3ccccc32)c1 | > 100 | > 100 |  | 53.4 | 75.5 | > 100 | 49 | > 100 | > 100 | > 100
8 | N#C/C(C(=O)NCc1ccccc1)=C(/N)N1CCCC1 | > 100 | > 100 | > 100 | > 100 | > 100 | > 100 | > 100 | > 100 | > 100 | 
9 | C[As+](C)(c1ccc(Br)c([N+](=O)[O-])c1)c1ccc(Br)c([N+](=O)[O-])c1.O=[N+]([O-])O | > 100 |  | 22 | > 100 | > 100 | > 100 | > 100 | > 100 | > 100 | > 100
10 | C=C(C)[C@H]1CC23C(=O)[C@@](C)(C[C@H]2C1(C)C)C(=O)C(C(=O)C(C)C)=C3O | 33.1 | 24.9 | 31.5 |  | 40.4 | 41.1 |  | 38.7 | 34.9 | 
11 | CCCCNC(=O)Cn1c2ccc(Br)cc2c2nc3ccccc3nc21 |  | > 100 | > 100 | > 100 | > 100 | > 100 |  | > 100 |  | > 100
12 | CCOC(=O)c1csc(NC(=O)CCN2CCCC2)n1 | > 100 | > 100 | > 100 |  | > 100 | > 100 | > 100 | > 100 | > 100 | > 100
13 | CN(C)CCCNC(=O)N/N=C/c1ccccc1 | > 100 | > 100 | > 100 | > 100 |  | > 100 | > 100 |  |  | > 100
14 | NCCCCNCCCN1CCOC1=O | > 100 | > 100 | > 100 | > 100 | > 100 | > 100 | > 100 | > 100 |  | > 100
15 | COc1cc(N=Nc2ccc(OC)c(S(=O)(=O)O)c2)c(C)cc1N=Nc1ccc(/C=C/c2ccc(N=[N+]([O-])c3ccc(/C=C/c4ccc(N=Nc5cc(C)c(N=Nc6ccc(OC)c(S(=O)(=O)O)c6)cc5OC)cc4S(=O)(=O)O)c(S(=O)(=O)O)c3)cc2S(=O)(=O)O)c(S(=O)(=O)O)c1 | > 100 | > 100 | > 100 | > 100 | > 100 | > 100 | > 100 |  | > 100 | > 100
16 | CC1=C(C(=O)OCCO[N+](=O)[O-])C(c2ccccc2[N+](=O)[O-])C(C(=O)OC(C)C)=C(C)N1 (stereo not given) | 30.9 | > 100 | 26.8 | 46.2 | 33.8 | 28.1 | 39.8 | > 100 | 52.3 | 
17 | N#CCCN(CCC#N)c1ccc(C(N=Nc2ccccc2)=Nc2ccc(F)cc2)cc1 | > 100 |  | > 100 | > 100 | > 100 | > 100 | > 100 | > 100 | > 100 | > 100
18 | CC(=O)Oc1ccc2c(-c3ccccc3)c(Oc3ccc(Cl)cc3)c(=O)oc2c1 | 10 | 35.7 | 32.6 | 30.8 | 34.9 | 27.5 |  | 84.4 | 35.8 | 19.5
19 | O=c1c2c3c(sc2nc2n1N=C(c1ccc(Br)cc1)CS2)CCCC3 | > 100 | > 100 |  | > 100 | > 100 | > 100 | > 100 | > 100 | > 100 | > 100
20 | Cc1cc(-c2ccccc2)nc2oc(=O)n(C)c12 | > 100 | > 100 | > 100 | > 100 | > 100 | > 100 | > 100 |  | > 100 | 
21 | COc1ccc(-c2cc3cc(Cl)cc(Cl)c3oc2=O)cc1OC | > 100 | > 100 | > 100 | > 100 | > 100 | > 100 | > 100 | > 100 | > 100 | 
22 | O=C1c2cc3c(cc2CC12Cc1ccc4c(c1C2=O)CCC4)CCC3 (stereo not given) | > 100 | > 100 | > 100 | > 100 | > 100 |  | > 100 | > 100 | > 100 | > 100
23 | Cc1ccc(C)c(COCCOCn2cc(N3CCOCC3)c(=O)[nH]c2=O)c1 | > 100 | > 100 |  | > 100 |  | > 100 | > 100 | > 100 |  | > 100
